{"source": "paper PMC6627331", "about": "“Identification of Small Molecule Inhibitors of Staphylococcus aureus RnpA” (Antibiotics, 2019)", "key": {"E. coli": {"tested_on": "E. coli", "test": "Antimicrobial activity toward E. coli", "assay_type": "cell-based, Escherichia coli"}, "[1]": {"test": "JC2 stability (degradation test) in Mueller Hinton broth by HPLC", "assay_type": "physicochemical", "details": "37 °C, read-out: half-life in Mueller Hinton media (MH t1/2) (converted)", "method": "Degradation test: Blank sample was prepared with 20 µL Mueller Hinton broth (BD biosciences, US) diluted in 180 µL of 2 % DMSO in 1:1 (v/v) acetonitrile : water solution, and directly submitted to HPLC for evaluation. A 5 mM JC2 stock solution was prepared by diluting the 25 mM stock solution with DMSO. 4 µL of 5 mM […] solution was added into 196 µL of MH, and incubated at 37 °C for the whole course of evaluation. 20 µL of each incubated sample was taken at 0, 0.5, 1, 2, 4, 8, 16 hr, and were prepared in the same manner as the blank sample before submitting to HPLC.\nChromatography was performed on an Agilent 1200 series HPLC system that equipped with a vacuum degasser, a quaternary pump, a diode array and multiple wavelength detector SL, and a standard and preparative autosampler (Agilent Technologies, US). A Hyspersil GOLD^TM C-18 4.6 x 250 mm, 3 µm column was used for separation. A gradient elution method was used as the mobile phase by mixing solvent A (water, 0.1% formic Acid) and solvent B (acetonitrile, 0.1% formic acid). The time program for gradient elution is shown in Table A. The flow rate was set at 1.0 ml/min, and 20µl of sample was injected each time. The detector monitored absorption at 254, 215, 280 nm.\nChemstation Offline (Agilent Technologies, US) was used to analyze the data. […]"}, "S. aureus UAMS-1": {"tested_on": "S. aureus UAMS-1", "test": "Galleria mellonella model of S. aureus infection", "assay_type": "in vivo", "details": "10^4 CFU UAMS-1, single dose 100 mg·kg^−1 1 h post-infection, 16 h; DMSO 60%", "method": "An overnight culture of S. aureus strain UAMS-1 was used to inoculate (1:100 dilution) 25 mL of fresh MH medium and growth at 37 °C on a rotary shaker at 225 rpm to exponential phase (~1 × 10^8 CFU mL^−1). Cultures were pelleted by centrifugation, washed with phosphate buffered saline (PBS), and re-suspended at ~1 × 10^7 CFU·mL^−1 in fresh PBS. G. mellonella larvae weighing 150–250 mg were inoculated with 5 µL of S. aureus into the last left proleg using a 10 µL Hamilton syringe. About 1 h after inoculation, one group of worms was treated with 2 µL DMSO as infected negative control; one group was treated with 2 µL JC2 compound at 100 mg/kg dose; another group was treated with 2 µL vancomycin at 100 mg/kg dose as standard-of-care comparison. Treatments were administered in the same manner as infection, except that each injection was in the next left proleg moving towards the head of the worm. […] In addition to the mock or compound treatment of infected larvae, a group of non-infected worm injected with DMSO or corresponding compounds were used to monitor the impact of physical trauma as well as observe toxicity associated with compound treatment."}, "S. aureus RnpA": {"target": "T1, S. aureus RnpA (Staphylococcus aureus, UniProt P0A0H5)", "T1 construct": "hexahistidine (His6) (N); made in house; host or cells: E. coli BL21 (DE3), plasmid pEXP5-nt", "T1 sequence (P0A0H5 1-117)": "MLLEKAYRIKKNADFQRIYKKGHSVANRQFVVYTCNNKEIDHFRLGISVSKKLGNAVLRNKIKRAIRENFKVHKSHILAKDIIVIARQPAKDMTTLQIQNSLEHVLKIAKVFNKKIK", "test": "RnpA-mediated in vitro spa mRNA degradation assay", "assay_type": "biochemical", "details": "read-out: Degradation IC50", "method": "RnpA-mediated RNA degradation assays were performed as previously described. Briefly, 1 pmol of spa mRNA was incubated with 5 pmol RnpA at 37 °C for 30 min in reaction buffer (50 mM Tris-HCl pH 8.0, 2 mM NaCl, 2 mM MgCl2) in the absence or presence of the indicated compound (≤500 µM). The inhibitory effects of the test compounds were calculated using Biorad ImageLab densitometry software to measure the signal intensity of the spa band in the negative control (spa alone), positive control (RnpA + spa + DMSO), and experimental samples (RnpA + spa + test compound) separated on a 1.2% formaldehyde-agarose gel. Background signal from the positive control sample sometimes resulted due to incomplete degradation of transcripts. Thus, the signal intensity of the positive control was taken into account when calculating the percent inhibition. The raw signals from the positive (+RnpA) and negative (-RnpA) controls were converted into percentage, by normalizing the positive control (+RnpA) signal to 0% RnpA inhibition and the negative control (-RnpA) to 100% RnpA inhibition. Similarly, the raw signals from the test compounds were reported as percent RnpA inhibition using the following equation: [(experimental−positive control)/(negative control−positive control)] × 100. […] To assess IC50, % RnpA degradation inhibition was plotted against compound concentration; a linear best fit equation was generated and utilized to calculate the IC50."}, "[2]": {"tested_on": "all cellular mRNA species of S. aureus UAMS-1", "test": "Global cellular mRNA turnover (Affymetrix GeneChip)", "assay_type": "cell-based, Staphylococcus aureus", "details": "0.5× MIC; mock (DMSO) 84.8%", "method": "S. aureus mRNA half-life determinations were performed as previously described. […] Rifampin (Sigma-Aldrich) was added to the culture at a final concentration of 200 μg·mL^−1 to inhibit de novo transcript synthesis. Half of the culture was immediately removed and combined with an equal volume of ice cold acetone:ethanol (1:1 v/v). The remaining culture was returned to the shaking 37 °C incubator for an additional 5 min and then subsequently combined with an equal volume of ice cold acetone:ethanol (1:1 v/v) and stored at −80 °C until processing, as described below.\nBriefly, following the manufacturer’s instructions for prokaryotic arrays, reverse transcription was carried out on 10 µg of total bacterial RNA and control eukaryotic poly(A) RNA (Affymetrix). […] Transcript signal intensity values were read using the Affymetrix GeneChip® Scanner, and intensity values for each ORF and intergenic region were averaged among the biological replicates (n ≥ 2). Signals were normalized to the control poly(A) cDNA intensity values using GeneSpring 7.2 software (Agilent Technologies, Redwood City, CA, USA) and the number of transcripts with a decrease in transcript signal of >2-fold were determined."}, "S. aureus BAA-1708": {"tested_on": "S. aureus BAA-1708", "test": "MIC against clinical strain BAA-1708", "assay_type": "cell-based, Staphylococcus aureus", "details": "S. aureus clinical strain BAA-1708"}, "S. aureus USA300": {"tested_on": "S. aureus USA300", "test": "MIC against clinical strain USA300", "assay_type": "cell-based, Staphylococcus aureus"}}, "note": "pIC50: −log10 of the molar value. Like-named read-outs stand apart in the source and are kept apart here.", "data": [{"compound": "CC1CCCCN1C(=O)Nc1cc(Cl)cc(Cl)c1", "note": "(stereo not drawn) [JC2]", "values": [{"measurement": "antimicrobial activity toward E. coli", "setting": "E. coli", "result": "did not shown antimicrobial activity"}, {"measurement": "half-life at 100 µM", "setting": "[1]", "result": "~120", "unit": "min"}, {"measurement": "mortality rate of S. aureus infected worms", "setting": "S. aureus UAMS-1", "result": 30, "unit": "%"}, {"measurement": "pIC50", "setting": "S. aureus RnpA", "result": 3.74}, {"measurement": "transcript species with a half-life of ≤5 min", "setting": "[2]", "result": 51.6, "unit": "%"}, {"measurement": "MIC", "setting": "S. aureus BAA-1708", "result": 1, "unit": "µg/mL"}, {"measurement": "MIC", "setting": "S. aureus BAA-1708; Staphylococcus aureus, BAA1708, read-out: MIC", "result": 1, "unit": "µg/mL"}, {"measurement": "MIC", "setting": "S. aureus USA300", "result": 0.5, "unit": "µg/mL"}, {"measurement": "MIC", "setting": "S. aureus USA300; Staphylococcus aureus, read-out: MIC", "result": 0.5, "unit": "µg/mL"}]}]}
